PubChem BioAssay AID2060483 (Molecular Pharmacology Branch, DTP, NCI, 2025)
“And” between values parts separate entries of the source, which are not always exact repeats. Identical values can stand only once.

System: K24384-001-R-PDC complex spheroids, viability
Test: Anticancer human tumor K24384-001-R-PDC patient-derived pancreatic adenocarcinoma cell line growth inhibition [GQUAD]
Conditions: for viability, T/C: stronger effect = lower value
Text: DNA G-quadruplex Stabilizer Agents in Combinations in Complex Spheroids
A high-throughput screen of multi-cell type tumor spheroids was designed to identify active combinations of DNA G-quadruplex stabilizer agents and targeted small molecules. Complex spheroids include a stromal component modeled by human endothelial cells (HUVEC) and fibroblasts modeled by human mesenchymal stem cells (MSCs). The concentration ranges selected for each drug and investigational agent were based upon clinically achievable concentrations if the clinical Cmax of the agent was known.
Compounds. The drugs and investigational agents: pidnarulex (CX-5461; NSC782164), APTO-253 (NSC789042), BRACO-19 (NSC847499), peposertib (NSC802822), ceralasertib (NSC780249), elimusertib (NSC800525), camonsertib (NSC841442), AZD-1390 (NSC803789), olaparib (NSC753686), talazoparib (NSC767125), ART-558 (NSC835418), sotorasib (NSC818433), MRTX-1133 (NSC836407), SN-38 (NSC673596), topotecan (NSC609699), etoposide (NSC141540), doxorubicin (NSC123127), gemcitabine (NSC613327), 5-fluorouracil (NSC19893), paclitaxel (NSC125973), vemurafenib (NSC761431), panobinostat (NSC761190), R-306465 (JNJ-16241199; NSC773264), adavosertib (NSC754352), TP-3654 (NSC805149), carboplatin (NSC241240), KSQ-4279 (NSC840948), and staurosporine (NSC755774) were obtained from the National Cancer Institute (NCI) Developmental Therapeutics Program Chemical Repository (34). The FDA-approved anticancer drug set is available from the NCI Developmental Therapeutics Program. […] The stock solutions were prepared in dimethyl sulfoxide (DMSO, Sigma-Aldrich, St. Louis, MO, cat. D2650) at 800-fold the tested concentration and stored at -70 degrees C prior to their use. All drugs and investigational agents were tested over a range starting from a high concentration at or near the clinical Cmax and decreasing in half-log increments. If the clinical Cmax for an agent had not been determined, the highest concentration tested was 10 microM.
2.3 Cell Culture. All cells were maintained in an incubator at 37 degrees C and 5% CO2 with 95% humidity. The PDC lines were cultured according to standard operating procedures established by the NCI PDMR. All PDCs were thawed and cultured in Matrigel-coated flasks prepared with a working solution of 1X Ham's F-12 nutrient mix, without supplementation (Invitrogen, cat. 11765054), 100 U/mL penicillin-streptomycin (Invitrogen, cat. 15140122), and 2.5% Matrigel (Corning Inc., cat. 354248) for the first three passages. The 857933-349-R-J2-PDC line was cultured in 6C/Colon 1B media, which includes advanced DMEM/F-12 (Thermo Fisher Scientific, cat. 12634028), 10 mM HEPES (Thermo Fisher Scientific, cat. 15630080), 1X GlutaMAX supplement (Thermo Fisher Scientific, cat. 35050061), 0.1 mg/mL primocin (InvivoGen, cat. ant-pm-2), 10% defined fetal bovine serum, heat inactivated (HyClone Laboratories Inc., cat. SH30070.03HI), 50% L-WRN conditioned media (ATCC, cat. CRL-3276), 1.25 mM N-Acetyl-L-cysteine (Sigma-Aldrich, cat. A9165), 10 mM nicotinamide (Sigma-Aldrich, cat. N0636), 1X B-27 supplement (Thermo Fisher Scientific, cat. 17504044), 1X N-2 supplement (Thermo Fisher Scientific, cat. 17502048), 10 microM Y-27632 dihydrochloride (Tocris Bioscience, cat. 1254), and 50 ng/mL human EGF recombinant protein (Thermo Fisher Scientific, cat. PHG0311). The 485176-168-R4-J1-PDC line was cultured in Panc media, which includes all 6C/Colon 1B media components plus 100 ng/mL human FGF-10 (Thermo Fisher Scientific, cat. 100-26), 500 nM SB-431542 (Selleckchem, cat. S1067), and gastrin (Tocris, cat. 3006).
[…]
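Note: spheroids exposed to compounds for seven days.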

In the case of `C=CC(=O)N1CCN(c2nc(=O)n(-c3c(C)ccnc3C(C)C)c3nc(-c4c(O)cccc4F)c(F)cc23)C(C)C1` (centres undefined) + Cc1cnc(CNC(=O)c2c(=O)c3ccc(N4CCCN(C)CC4)nc3n3c2sc2ccccc23)cn1, the IC50 (curve of first compound, second compound 0.0316 µM) is reported as > 10 µM, the IC50 (curve of first compound, second compound 0.1 µM) is reported as 8.78 µM and the IC50 (curve of first compound, second compound 0.316 µM) is reported as > 10 µM. For the same compound, the IC50 (curve of first compound, second compound 1 µM) was < 0.0316 µM, the IC50 (curve of first compound, second compound 3.16 µM) was < 0.0316 µM and the IC50 (curve of first compound, second compound 10 µM) was < 0.0316 µM. It also gave a viability, T/C (second compound 0.0316 µM, first compound 0.0316 µM) of 79.5%, a viability, T/C (second compound 0.0316 µM, first compound 0.1 µM) of 78.9% and a viability, T/C (second compound 0.0316 µM, first compound 0.316 µM) of 92.1%. For the same compound, the viability, T/C (second compound 0.0316 µM, first compound 1 µM) was 88.5%, the viability, T/C (second compound 0.0316 µM, first compound 3.16 µM) was 98.4% and the viability, T/C (second compound 0.0316 µM, first compound 10 µM) was 83.2%. It also gave a viability, T/C (second compound 0.1 µM, first compound 0.0316 µM) of 54.7%, a viability, T/C (second compound 0.1 µM, first compound 0.1 µM) of 78% and a viability, T/C (second compound 0.1 µM, first compound 0.316 µM) of 53.6%. The viability, T/C (second compound 0.1 µM, first compound 1 µM) was 64.6%, the viability, T/C (second compound 0.1 µM, first compound 3.16 µM) was 58.8% and the viability, T/C (second compound 0.1 µM, first compound 10 µM) was 48.9%. The viability, T/C (second compound 0.316 µM, first compound 0.0316 µM) was 48.3%, the viability, T/C (second compound 0.316 µM, first compound 0.1 µM) was 71.5% and the viability, T/C (second compound 0.316 µM, first compound 0.316 µM) was 64.3%. It also gave a viability, T/C (second compound 0.316 µM, first compound 1 µM) of 65.5%, a viability, T/C (second compound 0.316 µM, first compound 3.16 µM) of 70.8% and a viability, T/C (second compound 0.316 µM, first compound 10 µM) of 49.3%. For the same compound, the viability, T/C (second compound 1 µM, first compound 0.0316 µM) was 41%, the viability, T/C (second compound 1 µM, first compound 0.1 µM) was 52.3% and the viability, T/C (second compound 1 µM, first compound 0.316 µM) was 42.5%. The viability, T/C (second compound 1 µM, first compound 1 µM) was 66.3%, the viability, T/C (second compound 1 µM, first compound 3.16 µM) was 59.9% and the viability, T/C (second compound 1 µM, first compound 10 µM) was 47.7%. It also gave a viability, T/C (second compound 3.16 µM, first compound 0.0316 µM) of 35.3%, a viability, T/C (second compound 3.16 µM, first compound 0.1 µM) of 48.6% and a viability, T/C (second compound 3.16 µM, first compound 0.316 µM) of 39.6%. For the same compound, the viability, T/C (second compound 3.16 µM, first compound 1 µM) was 47.5%, the viability, T/C (second compound 3.16 µM, first compound 3.16 µM) was 47.5% and the viability, T/C (second compound 3.16 µM, first compound 10 µM) was 37.5%. For the same compound, the viability, T/C (second compound 10 µM, first compound 0.0316 µM) was 20.8%, the viability, T/C (second compound 10 µM, first compound 0.1 µM) was 23.7% and the viability, T/C (second compound 10 µM, first compound 0.316 µM) was 31.4%. The viability, T/C (second compound 10 µM, first compound 1 µM) was 42%, the viability, T/C (second compound 10 µM, first compound 3.16 µM) was 23.3% and the viability, T/C (second compound 10 µM, first compound 10 µM) was 22.7%.

For `CCCS(=O)(=O)Nc1ccc(F)c(C(=O)c2c[nH]c3ncc(-c4ccc(Cl)cc4)cc23)c1F`, the viability, T/C (compound 0.0316 µM) was 99.8% and 109% and 105%, the viability, T/C (compound 0.1 µM) was 107% and 112% and 96.4% and the viability, T/C (compound 0.316 µM) was 128% and 125% and 130%. For the same compound, the viability, T/C (compound 1 µM) was 119% and 110% and 116%, the viability, T/C (compound 3.16 µM) was 137% and 147% and 123% and the viability, T/C (compound 10 µM) was 46.2% and 54.7% and 52.6%. For the same compound, the IC50 (curve of compound) was 9.4 µM and > 10 µM.
